Laboratory results published in the NIST ThermoML archive (doi:10.1021/acs.jced.8b01075).

Test: molar heat capacity at saturation pressure
Settings: Crystal, Small (less than 1 g) adiabatic calorimetry

O=C(O)c1ccccc1 [benzoic acid]
Settings | molar heat capacity [J/K/mol]
4.54 K | 0.238
4.75 K | 0.256
4.88 K | 0.271
5.02 K | 0.296
5.16 K | 0.31
5.29 K | 0.316
5.42 K | 0.327
5.53 K | 0.343
5.64 K | 0.358
5.75 K | 0.372
5.85 K | 0.388
5.95 K | 0.419
6.07 K | 0.438
6.22 K | 0.468
6.38 K | 0.502
6.53 K | 0.521
6.7 K | 0.571
6.84 K | 0.618
6.99 K | 0.662
7.14 K | 0.7
7.29 K | 0.731
7.43 K | 0.778
7.57 K | 0.823
7.72 K | 0.893
7.86 K | 0.954
8.01 K | 0.978
8.16 K | 1.053
8.31 K | 1.116
8.46 K | 1.163
8.6 K | 1.263
8.76 K | 1.329
8.91 K | 1.384
9.07 K | 1.472
9.22 K | 1.512
9.38 K | 1.58
9.53 K | 1.649
9.69 K | 1.725
9.84 K | 1.858
10 K | 1.902
10.21 K | 2.036
10.49 K | 2.207
10.76 K | 2.354
11.04 K | 2.56
11.32 K | 2.751
11.6 K | 2.956
11.88 K | 3.123
12.17 K | 3.346
12.45 K | 3.529
12.75 K | 3.819
13.03 K | 4.037
13.33 K | 4.28
13.62 K | 4.532
13.91 K | 4.755
14.01 K | 4.933
14.31 K | 5.137
14.6 K | 5.519
14.9 K | 5.794
15.19 K | 6.073
15.49 K | 6.356
15.79 K | 6.616
16.09 K | 6.911
16.39 K | 7.207
16.7 K | 7.541
17 K | 7.836
17.3 K | 8.091
17.6 K | 8.409
17.91 K | 8.786
18.21 K | 9.095
18.52 K | 9.471
18.83 K | 9.71
19.13 K | 10.14
19.44 K | 10.4
19.58 K | 10.55
19.75 K | 10.7
19.89 K | 10.86
20.52 K | 11.49
21.41 K | 12.5
22.31 K | 13.49
23.22 K | 14.56
24.13 K | 15.56
25.05 K | 16.55
25.98 K | 17.58
26.92 K | 18.63
27.86 K | 19.67
28.81 K | 20.7
29.76 K | 21.73
30.71 K | 22.75
31.67 K | 23.72
32.64 K | 24.69
33.6 K | 25.68
34.57 K | 26.57
35.56 K | 27.57
36.53 K | 28.47
37.51 K | 29.44
38.5 K | 30.44
39.89 K | 31.71
40.89 K | 32.53
41.89 K | 33.31
42.89 K | 33.99
43.89 K | 34.84
44.89 K | 35.7
45.89 K | 36.42
46.89 K | 37.22
47.9 K | 38.04
48.9 K | 38.77
49.91 K | 39.47
50.92 K | 40.13
51.94 K | 40.84
52.95 K | 41.56
53.97 K | 42.16
54.98 K | 42.68
56.02 K | 43.44
57.03 K | 44.09
58.06 K | 44.66
59.17 K | 45.31
60.19 K | 45.98
61.22 K | 46.55
62.24 K | 47.19
63.27 K | 47.79
64.3 K | 48.32
65.32 K | 48.9
66.35 K | 49.45
67.38 K | 49.97
68.41 K | 50.43
69.43 K | 50.89
71.27 K | 51.74
73.3 K | 52.71
75.33 K | 53.69
77.36 K | 54.68
78.78 K | 55.18
79.56 K | 55.66
81.07 K | 56.41
83.09 K | 57.46
85.1 K | 58.18
87.11 K | 58.97
89.11 K | 59.73
91.11 K | 60.5
93.12 K | 61.27
95.11 K | 62.07
97.11 K | 62.81
99.11 K | 63.57
101.6 K | 64.59
104.58 K | 65.66
107.58 K | 66.69
110.58 K | 67.85
113.59 K | 69.03
116.61 K | 70.18
119.62 K | 71.3
122.63 K | 72.54
125.65 K | 73.61
128.67 K | 74.78
131.69 K | 75.96
134.72 K | 77.09
137.76 K | 78.23
140.79 K | 79.41
143.83 K | 80.49
146.87 K | 81.68
149.91 K | 82.93
152.95 K | 84.03
156 K | 85.17
159.05 K | 86.37
162.09 K | 87.59
165.18 K | 88.85
168.23 K | 90.02
171.28 K | 91.22
174.33 K | 92.46
177.38 K | 93.64
180.44 K | 94.8
183.49 K | 96.08
186.54 K | 97.26
189.6 K | 98.55
192.66 K | 99.83
195.71 K | 101
198.77 K | 102.3
201.83 K | 103.6
204.89 K | 104.9
208.45 K | 106.6
212.52 K | 108.2
216.67 K | 110.1
220.76 K | 111.7
224.85 K | 113.5
228.95 K | 115.3
237.16 K | 119
241.28 K | 120.8
245.39 K | 122.6
249.52 K | 124.4
253.64 K | 126.3
257.77 K | 128.1
261.9 K | 130
266.04 K | 132
270.19 K | 133.8
274.34 K | 135.7
278.49 K | 137.6
282.77 K | 139.8
286.93 K | 141.6
291.09 K | 143.5
295.26 K | 145.5
299.42 K | 147.4
304.38 K | 149.7
310.53 K | 152.6
317.37 K | 155.7
324.19 K | 158.8
330.99 K | 162

[Al+3].[Al+3].[O-2].[O-2].[O-2] [aluminum oxide (Al2O3)]
Settings | molar heat capacity [J/K/mol]
81.94 K | 7.415
84.02 K | 7.956
87.02 K | 8.82
90.02 K | 9.678
93.01 K | 10.58
96 K | 11.53
98.99 K | 12.53
101.97 K | 13.54
104.94 K | 14.57
107.93 K | 15.61
110.92 K | 16.7
113.92 K | 17.8
116.92 K | 18.91
119.93 K | 20.06
122.94 K | 21.18
125.95 K | 22.36
128.99 K | 23.51
132.02 K | 24.71
135.04 K | 25.91
138.07 K | 27.14
141.09 K | 28.39
144.13 K | 29.63
147.16 K | 30.83
150.2 K | 32.05
153.23 K | 33.28
156.27 K | 34.49
159.31 K | 35.7
162.35 K | 36.9
165.39 K | 38.13
168.44 K | 39.32
171.48 K | 40.52
174.52 K | 41.67
177.6 K | 42.88
180.64 K | 44.01
183.68 K | 45.17
186.72 K | 46.24
189.76 K | 47.4
192.8 K | 48.56
195.84 K | 49.61
198.88 K | 50.65
201.91 K | 51.8
204.95 K | 52.77
207.97 K | 53.81
211 K | 54.84
214.02 K | 55.88
217.04 K | 56.95
220.05 K | 57.85
223.06 K | 58.88
226.07 K | 59.93
229.07 K | 60.93
232.07 K | 61.8
235.06 K | 62.67
238.05 K | 63.55
241.03 K | 64.4
244.01 K | 65.33
246.98 K | 66.26
249.94 K | 67.1
252.9 K | 67.9
255.85 K | 68.71
258.78 K | 69.49
261.71 K | 70.19
264.63 K | 71.03
267.53 K | 71.84
270.43 K | 72.53
